# Source: US7064243B2, “Screens and assays for agents useful in controlling parasitic nematodes” (Cambria Biosciences LLC, priority 2001, dated 2006)
# “Also recorded” adds a separate entry of the source. Read-outs that look alike come from different tables or passages of the source.
# Assays:
# [1] = system: secretion of the VAP-1-Myc fusion protein; experiment: Secretion assay: immunoblot (anti-Myc) of VAP-1-Myc in conditioned axenic media of worms bearing the vap-1::myc transgene; format: in vivo, C. elegans; conditions: various concentrations, 16 hours, 24 well plates, dose-dependent fashion (FIG. 8)
# Procedure: Worms (either animals bearing the vap-1::myc transgene or unc-119 (e2498) mutants rescued with plasmid pPD#MM016B as a negative control) were cultured in S basal medium (recipe below) containing HB101 bacteria as a food source for 4–5 days as described below. The worms were separated from the media by centrifugation and washed several times in S basal media. Worms were then resuspended in 50 ml of axenic media (recipe below) and cultured overnight (˜20 h). A vessel containing only axenic media without worms was maintained under identical conditions as a control. The worm density in both the vap-1::myc and unc-119 cultures was approximately 50,000 per ml. It was estimated that 50–70% of the worms carry the transgene.
# After overnight incubation in axenic media, the worms and media were separated by centrifugation (see below for details) and the media were concentrated using Centriprep 30 concentrators (see below for details). […]
# To determine the effect of 4,7 phenanthroline on secretion of the VAP-1-Myc fusion protein, worms (either transformation control or bearing the vap-1::myc transgene) were cultured in 24 well plates (in a manner similar to the 96 well scaledown protocol described below) in axenic media in the presence of various concencentrations of 4,7 phenanthroline for 16 hours. […] VAP-1-Myc fusion protein was detected with anti-Myc antibody as described above.
# ASP-1 release = conditions: hookworm larvae, cited from earlier work
# A. caninum L3 larvae = conditions: in vivo; cited from earlier work
compound,measurement,setting,value
"c1cnc2ccc3ncccc3c2c1 [4,7-phenanthroline]",secretion of the VAP-1-Myc fusion protein,[1],inhibited
same,release of ASP-1,ASP-1 release,known inhibitor; also recorded: blocked
same,release of ASP-1,"ASP-1 release; listed as 4,7 phenanthroline",known inhibitor
same,resumption of larval hookworm development,A. caninum L3 larvae,blocked
